In data set [1] the test system is Tobacco Michinoku 1 (burley cultivar) axillary buds. Briefly: Tobacco axillary bud growth inhibition test, burley cultivar. It counts as in vivo. The conditions noted are these: Nicotiana tabacum, 672 h, 28 days after the spraying; for pest or weed control at 0.1 %: concentration of active ingredient 0.1%; for pest or weed control at 0.35 %: concentration of active ingredient 0.35%; for pest or weed control at 0.03 %: concentration of active ingredient 0.03%; for pest or weed control at 0.05 %: concentration of active ingredient 0.05%; for pest or weed control at 0.002 %: concentration of active ingredient 0.002%; for pest or weed control at 0.005 %: concentration of active ingredient 0.005%; for pest or weed control at 0.01 %: concentration of active ingredient 0.01%; for pest or weed control at 0.5 %: concentration of active ingredient 0.5%; for pest or weed control at 2.6 %: concentration of active ingredient 2.6%. As for the experimental part: (§1) Tobacco seedlings of Tsukuba 1 (flue-cured cultivar) and Michinoku 1 (burley cultivar) were transplanted to 1/5000a Wagner pots filled with Kureha garden nursery soil. The plants were grown in a glasshouse, and the floral axis parts were removed at the time of single-flower bloom of tobacco (top pruning).
(§2) The formulations of the inhibitors for tobacco axillary bud growth obtained in Formulation Examples 1 to 10 above were each diluted with water to predetermined concentrations, and 20 ml of the water-diluted solutions of the respective inhibitors were separately sprayed using a contact-type axillary bud inhibitor spraying instrument equipped with a spot exhaust nozzle (Examples 1 to 11 and 12 to 22). In addition, butralin (trade name: Blue Ribbon) (Comparative Examples 1 and 3) and decyl alcohol (trade name: Contact) (Comparative Examples 2 and 4) were used for tests as comparative examples in the same manner as above. In the cases of both the flue-cured cultivar and burley cultivar, one plant was planted per pot, and the tests were carried out in duplicate.
(§3) For the respective cases, states of inhibition of axillary bud growth 28 days after the spraying were investigated together with untreated groups sprayed with no inhibitor, and axillary bud growth inhibition ratios were calculated by the following equation. Axillary bud growth inhibition ratio=(fresh weight of axillary buds per plant of untreated group−fresh weight of axillary buds per plant of treated group)÷(fresh weight of axillary buds per plant of untreated group)×100 [Math. 1]
(§4) The formulation of Formulation Example 1 (cafenstrole), Formulation Example 2 (thenylchlor) or Formulation Example 10 (propisochlor) above was diluted with water to predetermined concentrations and mixed with decyl alcohol (manufactured by Wako Pure Chemical Industries, Ltd.), 2-ethylhexanol (manufactured by Wako Pure Chemical Industries, Ltd.) or geraniol (manufactured by Wako Pure Chemical Industries, Ltd.) at predetermined concentrations, and the resultant was adjusted and used for tests (Examples 23 to 31 and 32 to 40). In addition, as comparative examples, the formulation of Formulation Example 1, […], or Formulation Example 10 diluted with water to predetermined concentrations (Comparative Examples 5 to 7 and 11 to 13) and decyl alcohol, 2-ethylhexanol or geraniol diluted with water to a predetermined concentration were used for tests (Comparative Examples 8 to 10 and 14 to 16).
(§5) The respective inhibitors were sprayed in the same manner as in Test Example 1, and states of inhibition of axillary bud growth 28 days after the spraying were investigated together with untreated groups sprayed with no inhibitor. Then, axillary bud growth inhibition ratios were calculated.
(§6) The formulation of Formulation Example 11 (cafenstrole), Formulation Example 12 (thenylchlor) or Formulation Example 13 (chlorthal-dimethyl) above was diluted with water to predetermined concentrations, and the resultant was mixed, adjusted and used for tests (Examples 41 to 58 and 59 to 76). In addition, as comparative examples, the formulation of Formulation Example 11, Formulation Example 12 or Formulation Example 13 diluted with water to predetermined concentrations (Comparative Examples 21 to 29 and 34 to 42), butralin (trade name: Blue Ribbon) (Comparative Examples 17, 18, 30, and 31) and decyl alcohol (trade name: Contact) (Comparative Examples 19, 20, 32, and 33) were used for tests in the same manner as above.

In data set [2] the test system is Tobacco Tsukuba 1 (flue-cured cultivar) axillary buds. In words: Tobacco axillary bud growth inhibition test, flue-cured cultivar. It counts as in vivo, Nicotiana tabacum. The conditions noted are these: for pest or weed control at 0.5 %: concentration of active ingredient 0.5%. The method, then:
as §1, §2, §3, §4, §5, §6

Data set [3] concerns Tobacco Michinoku 1 (burley cultivar) leaves (first to fourth leaves from the top). Briefly: Harmful effect of inhibitor on tobacco leaves, burley cultivar. In kind it is in vivo, Nicotiana tabacum. The method, then: as §1, §2
(§7) Further, the presence or absence of the harmful effect of each inhibitor was evaluated in one of the following four categories depending on the degrees of growth inhibition, gangrene, change in color, deformation and the like of leaves (first to fourth leaves from the top).
(§8) Large: A severely harmful effect was observed.
(§9) Middle: A clearly harmful effect was observed.
(§10) Small: A slightly harmful effect was observed.
(§11) Absent: No harmful effect was observed.
as §6, §5

Data set [4] deals with Tobacco Tsukuba 1 (flue-cured cultivar) leaves (first to fourth leaves from the top). In words: Harmful effect of inhibitor on tobacco leaves, flue-cured cultivar. It counts as in vivo, Nicotiana tabacum. The method, then: as §1, §2, §7, §8, §9, §10, §11, §6, §5
Setting [5] is: Table 2, burley cultivar, read-out: Axillary bud growth inhibition ratio.
The mark [6] stands for this setting: Nicotiana tabacum, 672 h, Table 1, flue-cured cultivar, concentration of active ingredient 0.1%, 28 days after the spraying, read-out: Axillary bud growth inhibition ratio.
The mark [7] stands for this setting: read-out: Axillary bud growth inhibition ratio, Table 2, burley cultivar.
Where [8] appears, read: read-out: Axillary bud growth inhibition ratio, Table 6, burley cultivar.
[9] abbreviates: Nicotiana tabacum, 672 h, read-out: Axillary bud growth inhibition ratio.
Where [10] appears, read: Table 4, burley cultivar, read-out: Axillary bud growth inhibition ratio.
Where [11] appears, read: Table 6, burley cultivar, read-out: Axillary bud growth inhibition ratio.
Where [12] appears, read: Table 2, burley cultivar, concentration of active ingredient 0.1%.
The mark [13] stands for this setting: Table 1, flue-cured cultivar, concentration of active ingredient 0.1%.
Where [14] appears, read: Nicotiana tabacum, 672 h, Table 3, flue-cured cultivar, 28 days after the spraying, read-out: Axillary bud growth inhibition ratio.

SMILES strings stand for the structures. Where two headings read alike, the source gives them in different places.

For the compound `COCC(C)N(C(=O)CCl)c1c(C)csc1C` (centres unmarked) [Dimethenamid, dimethenamid], the pest or weed control at 0.1 % in data set [1] (setting [5]) was found to be 94%; in data set [2] (setting [6]), 92%. The “Harmful effect of inhibitor” value in data set [3] (in vivo) and in data set [4] (in vivo) was “Absent” in each case.

With `CCC(C)Nc1c([N+](=O)[O-])cc(C(C)(C)C)cc1[N+](=O)[O-]` (centres unmarked) [Butralin, butralin], the values for the pest or weed control at 0.35 % in data set [1] (setting [7]), in data set [1] (setting [8]) and in data set [2] (setting [9]) were 96%, 97% and 98%, respectively. The pest or weed control at 0.03 % in data set [1] (setting [8]) came out at 48%; in data set [2] (setting [9]), 44%. Further, the “Axillary bud growth inhibition ratio” value in data set [2] (Table 5, flue-cured cultivar, concentration of active ingredient 0.35%, 28 days after the spraying) was 98%.

Consider `COc1ccsc1CN(C(=O)CCl)c1c(C)cccc1C` [Thenylchlor], for which the pest or weed control at 0.1 % in data set [1] (setting [5]) turned out to be 95%; in data set [2] (setting [6]) it was 96%. The pest or weed control at 0.05 % in data set [1] (setting [10]) was determined as 70%; in data set [2] (Nicotiana tabacum, 672 h, Table 3, flue-cured cultivar, concentration of active ingredient 0.05%, 28 days after the spraying, read-out: Axillary bud growth inhibition ratio) it was 74%. The pest or weed control at 0.002 % was 11% in data set [1] (setting [11]) and 12% in data set [2] (Nicotiana tabacum, 672 h, Table 5, flue-cured cultivar, concentration of active ingredient 0.002%, 28 days after the spraying, read-out: Axillary bud growth inhibition ratio). Further, the pest or weed control at 0.005 % in data set [1] (setting [11]) worked out at 22%; in data set [2] (Nicotiana tabacum, 672 h, Table 5, flue-cured cultivar, concentration of active ingredient 0.005%, 28 days after the spraying, read-out: Axillary bud growth inhibition ratio) it was 14%. In addition, the pest or weed control at 0.01 % in data set [1] (setting [11]) came to 28%; in data set [2] (Nicotiana tabacum, 672 h, Table 5, flue-cured cultivar, concentration of active ingredient 0.01%, 28 days after the spraying, read-out: Axillary bud growth inhibition ratio), 22%. The “Harmful effect of inhibitor” value in data set [3] (in vivo) and in data set [4] (in vivo) was “Absent” throughout.

Regarding `CCN(C(=O)n1nnn(-c2ccccc2Cl)c1=O)C1CCCCC1` [Fentrazamide, fentrazamide], the pest or weed control at 0.1 % in data set [1] (setting [5]) turned out to be 92%; in data set [2] (setting [6]), 94%. Moreover, the “Harmful effect of inhibitor” value in data set [3] (setting [12]) and in data set [4] (setting [13]) was “Absent” throughout.

Take `CCCCC(CC)CO` (centres unmarked) [2-Ethylhexanol, 2-ethylhexanol]: the results for the pest or weed control at 0.5 % in data set [1] (setting [10]) and in data set [2] (setting [14]) were 34% and 21%, respectively.

As to `CCN(CC)C(=O)n1cnc(S(=O)(=O)c2c(C)cc(C)cc2C)n1` [Cafenstrole], the pest or weed control at 0.1 % in data set [1] (setting [7]) came to 99%; in data set [2] (setting [9]) it was 100%. Also, the pest or weed control at 0.05 % in data set [1] (read-out: Axillary bud growth inhibition ratio, Table 4, burley cultivar) was 72%; in data set [2] (setting [9]), 76%. Moreover, the pest or weed control at 0.002 % in data set [1] (setting [8]) amounted to 15%; in data set [2] (setting [9]), 17%. The pest or weed control at 0.005 % came to 19% in data set [1] (setting [8]) and 20% in data set [2] (setting [9]). Moreover, the values for the pest or weed control at 0.01 % in data set [1] (setting [8]) and in data set [2] (setting [9]) were 25% and 23%, respectively. Also, the “Harmful effect of inhibitor” value is “Absent” in data set [3] (setting [12]); “Absent” in data set [3] (Table 6, burley cultivar, concentration of active ingredient 0.002%); “Absent” in data set [3] (Table 6, burley cultivar, concentration of active ingredient 0.005%); “Absent” in data set [3] (Table 6, burley cultivar, concentration of active ingredient 0.01%); “Absent” in data set [4] (setting [13]); “Absent” in data set [4] (Table 5, flue-cured cultivar, concentration of active ingredient 0.002%). The “Harmful effect of inhibitor” value in data set [4] (Table 5, flue-cured cultivar, concentration of active ingredient 0.005%) is on record as “Absent”; in data set [4] (Table 5, flue-cured cultivar, concentration of active ingredient 0.01%), “Absent”.

As for `CC(C)=CCC/C(C)=C/CO` [Geraniol, geraniol], the pest or weed control at 0.5 % in data set [1] (setting [10]) amounted to 28%; in data set [2] (setting [14]), 30%.

On to `CCCCCCCCCCO` [Decyl alcohol, decyl alcohol], for which the pest or weed control at 2.6 % in data set [1] (setting [5]) came out at 92%; in data set [1] (setting [11]), 94%; in data set [2] (Nicotiana tabacum, 672 h, Table 1, flue-cured cultivar, concentration of active ingredient 2.6%, 28 days after the spraying, read-out: Axillary bud growth inhibition ratio) it was 91%. Further, the pest or weed control at 0.5 % in data set [1] (setting [10]) was 46%; in data set [2] (setting [14]), 42%. For the same compound, the pest or weed control at 0.03 % was determined as 0% in data set [1] (setting [11]) and 0% in data set [2] (Nicotiana tabacum, 672 h, Table 5, flue-cured cultivar, concentration of active ingredient 0.03%, 28 days after the spraying, read-out: Axillary bud growth inhibition ratio). Also, the “Axillary bud growth inhibition ratio” value in data set [2] (Table 5, flue-cured cultivar, concentration of active ingredient 2.6%, 28 days after the spraying) amounted to 91%.

In the case of `CCc1cccc(C)c1N(COC(C)C)C(=O)CCl` [Propisochlor, propisochlor], the pest or weed control at 0.1 % in data set [1] (setting [5]) came to 84%; in data set [1] (setting [10]), 83%; in data set [2] (setting [6]) it was 86%. The pest or weed control at 0.2 % turned out to be 95% in data set [1] (Table 2, burley cultivar, concentration of active ingredient 0.2%, read-out: Axillary bud growth inhibition ratio) and 98% in data set [2] (Nicotiana tabacum, 672 h, Table 1, flue-cured cultivar, concentration of active ingredient 0.2%, 28 days after the spraying, read-out: Axillary bud growth inhibition ratio). In addition, the “Axillary bud growth inhibition ratio” value in data set [2] (Table 3, flue-cured cultivar, concentration of active ingredient 0.1%, 28 days after the spraying) was 86%. Also, the “Harmful effect of inhibitor” value in data set [3] (in vivo) and in data set [4] (in vivo) was “Absent” in each case.

Take `CCCCOCN(C(=O)CCl)c1c(CC)cccc1CC` [Butachlor, butachlor]: the pest or weed control at 0.1 % in data set [1] (setting [5]) turned out to be 96%; in data set [2] (setting [6]), 100%. The “Harmful effect of inhibitor” value in data set [3] (in vivo) and in data set [4] (in vivo) was “Absent” each time.

The values are drawn from patent US8865624B2, “Inhibitor for tobacco axillary bud growth and method for inhibiting tobacco axillary bud growth” (SDS Biotech K.K., priority 2010, dated 2014).
